Source: patent publication US5880116A, “Use of celastrol to treat alzheimer's disease” (Neurocal International, priority 1996, dated 1999)

Assays:
peritoneal macrophages = details: dose dependent; cited from earlier work
splenic cells = details: cited from earlier work
[1] = tested on: AA rats with experimental adjuvant arthritis; details: rat, in vivo; cited from earlier work
splenic lymphocytes = details: dose dependent; cited from earlier work
[2] = in words; cited from earlier work
ICR inbred mice = details: 1-3 mg/kg i.p. daily; cited from earlier work
[3] = tested on: rats (psychomotor activity); assay: Open-field psychomotor activity (PMA, VA, FF) in OUCEM-86 electronic maze; assay type: in vivo, rat (female Sprague-Dawley); details: for PMA: Psychomotor activity: N = 6, mean ± SD, 30 min recording
Description: (§1) Celastrol or vehicle was administered to rats as described below. Female Sprague-Dawley rats (obtained from Santiago University, Santiago de Compostela, Spain) were about 3 months old and weighed 200-250 g. The animals were maintained under standard conditions at the Euroespes Institute laboratory facilities.
(§2) The celastrol formulation was purchased in China in the form of pills under the name of "Leigongtengpian." The dose is expressed as the content of celastrol. The celastrol was dissolved in DMSO (35 μg/mL) and then adjusted to the appropriate concentration with 0.9% saline. Doses of 1.4, 7 and 35 μg/kg were administered intraperitoneally (i.p.) in a total injection volume of 2 ml/kg.
Immediately after injection, the animals were placed in the Osaka University Computerized Electronic Maze system (OUCEM-86, obtained from Bio Medica, Ltd., Osaka, Japan). The system, as previously described by Cacabelos et al (Prog. Med. 7:763-773, 1987), is integrated with the following components: A Programmable Electronic Platform (PEP) which measures 62 cm×62 cm and is equipped with 48 photo beam sensors (OPX-T30) to detect the three-dimensional position (four-footed, two-footed or rearing, and jumping) of the test animal; a Programming Panel (PP) (Model BECM-0064) for paradigm simulation; a Shock Generator Scrambler (SGS)(Model BSG-1065) to apply continuous or discontinuous electric currents to the PEP; a Control Station interface device to automatically computerize behavioral parameters; and a Computerized System (NEC PC-9801F) for data processing and experimental setting.
Tests were conducted in an open-field paradigm (where the rat can move freely) as previously described (Cacabelos et al. 1987) where psychomotor activity (PMA) was automatically recorded. Total PMA is the sum of horizontal and vertical movements. Horizontal movements are four-footed movements (FF). Vertical activity (VA) includes jumping and rearing (or two-footed) movements. The temporal profile of PMA during the 30 minutes of recording was also studied. PMA, FF and VA were expressed as total inputs/outputs (I/O). In general, increases in PMA, mainly in VA, are observed in situations of stress. A global increase in PMA is also found under treatment with stimulants and in rats with brain cholinergic deficits. Conversely, decreases in PMA are typical of sedative drugs, for instance.
(§3) Data were statistically analyzed by the ANOVA and the Duncan test for multiple comparisons. Results were expressed as mean ± standard deviation (SD) in tables and as mean ± standard error of […] (SEM) in figures.

[4] = tested on: rats (psychomotor coordination); assay: Psychomotor coordination (PMC) in rota-rod apparatus; assay type: in vivo, rat (female Sprague-Dawley); details: for PMC: Psychomotor coordination: N = 6, mean ± SD
Description: as §1, §2
At one hour after treatment, psychomotor coordination (PMC) was evaluated in a rota-rod apparatus (Letica Scientifiic Instruments, Barcelona, Spain) which consists of a roller turning at a constant pre-selected velocity (4-40 rpm) or at an increasing velocity with constant acceleration (for example, from 4 to 40 rpm in 300 seconds), and four digital counters that are stopped when the rat falls from the rod and lowers a pedal. In this test, the animals ran on a rod with constant acceleration until they fell off because they are unable to run at the necessary velocity to maintain equilibrium. Generally, there are two main causes of low performance in this test 1) myorelaxation and 2) balance disorders, as in some vestibular and brain lesions. Improved performance is seen with drugs improving muscular strength, motor coordination and/or balance. Mean running time of five consecutive trials was taken as an index of PMC.
as §3

[5] = tested on: rats (passive avoidance learning); assay: Passive avoidance behavior (PAB) learning, fixed-ratio maze paradigm; assay type: in vivo, rat (female Sprague-Dawley); details: for Av: number of avoidances during 10 trials / La: mean latency time per trial: N = 6, mean ± SD
Description: as §1, §2
Two hours after treatment, rats were tested for passive avoidance behavior in a PAB fixed-ratio maze paradigm, in which they learned to stay on a neutral platform (18×18 cm) in order to avoid a continuous electric footshock in the surrounding area during 10 trials (30 seconds each). The inter-trial interval was 30 seconds. The number of complete avoidances during 10 trials (Av; successful trials in which rat remains in the neutral area the entire 30-second period) and the latency per trial (La; time spent in the neutral platform before leaving it in a trial) were taken as learning indices. The number of avoidances represents a yes/no or discontinuous variable reflecting learning ability of the rats. In general, good learners perform more avoidances because they need fewer trials to learn to avoid footshock. Latency is a continuous variable measuring the time the rat is on the neutral platform without receiving footshock. Rats having the best memory or learning capacity spend more time on the neutral area. Therefore, latency is also an index of learning ability. Finally, when a drug increases the number of avoidances and mean trial latency in this paradigm, it means that this drug improves learning and memory function.
as §3

agitation and aggression = details: in vivo; cited from earlier work
[6] = tested on: patients clinically diagnosed with early AD; details: six months; cited from earlier work
AD patients = details: file history of US 5,192,753; cited from earlier work
patients with AD = details: a subgroup of patients with AD; cited from earlier work
[7] = 1.4 μg/kg i.p., 2 hours after treatment
[8] = 7.0 μg/kg i.p., * p < 0.05 vs control (0.0)

CC1=C(O)C(=O)C=C2C1=CC=C1[C@@]2(C)CC[C@@]2(C)[C@@H]3C[C@](C)(C(=O)O)CC[C@]3(C)CC[C@]12C [Celastrol]
LPS-induced IL-1 production (peritoneal macrophages): decreased
concentration of optimal effects on mitogen-induced splenic cell proliferation (splenic cells; PHA, Con A, LPS and PWM): 0.1 µg/mL
proliferation of splenic cells induced by mitogens PHA, Con A, LPS and PWM (splenic cells; in words): inhibited proliferation
joint edema [1]: reduced joint edema
lipid-peroxidation and free radical formation [1]: inhibition of lipid-peroxidation and free radical formation
Con A-induced IL-2 production (splenic lymphocytes): decreased
insecticidal activity [2]: insecticidal inert
antibody formation (ICR inbred mice): reduced antibody formation very significantly
circulating immune complex levels (ICR inbred mice): decreased circulating immune complex levels
serum complement (ICR inbred mice): increased serum complement
PMA vs untreated group, in words ([3]; 1.4 μg group, significance not reached): higher than for the untreated group
PMA: Psychomotor activity ([3]; 1.4 μg/kg i.p.): 3011 ± 1185 I/O
PMA: Psychomotor activity ([3]; 7.0 μg/kg i.p.): 2200 ± 1203 I/O
PMA: Psychomotor activity ([3]; 35.0 μg/kg i.p.): 1637 ± 796 I/O
four-footed (FF) activity (FIG. 12), in words ([3]; 1.4 and 7 μg groups): improved somewhat
PMA (total activity, FIG. 10), in words ([3]; 1.4 and 7 μg treatment groups): fared somewhat better
vertical activity (VA, FIG. 11), in words ([3]; 1.4 and 7 μg treatment groups vs no-treatment group): fared somewhat better than the no-treatment group
PMA over the thirty minute test interval (FIG. 13), in words ([3]; all treatment groups): a general trend of decreasing activity during the test period
dose of maximum effect on PMA ([3]; i.p.): 1.4 µg/kg
PMC: Psychomotor coordination ([4]; 1.4 μg/kg i.p., 1 hour after treatment): 99.4 ± 19.2 sec/trial
PMC, significance of difference ([4]; 7 μg group): reached significance
PMC: Psychomotor coordination ([4]; 7.0 μg/kg i.p., ** p < 0.01 vs control (0.0)): 126.3 ± 37.6 sec/trial
PMC: Psychomotor coordination ([4]; 35.0 μg/kg i.p., 1 hour after treatment): 106.5 ± 21.3 sec/trial
PMC (FIG. 14), in words ([4]; 1.4, 7 and 35 μg treatment groups vs no-treatment group): all scored better than the no-treatment group
dose of maximum effect on PMC ([4]; i.p.): 7 µg/kg
Av: number of avoidances during 10 trials [5, 7]: 4.3 ± 2.1 n°
La: mean latency time per trial [5, 7]: 18.3 ± 5.2 s
Av, significance of difference ([5]; 7 μg group): reached significance
La, significance of difference ([5]; 7 μg group): reached significance
Av: number of avoidances during 10 trials [5, 8]: 5.1 ± 1.8 n°
La: mean latency time per trial [5, 8]: 20.3 ± 2.8 s
latency time on the neutral platform (FIG. 16), in words ([5]; 7.0 μg/kg treatment group): learned significantly more quickly to stay on the platform and avoid the shock
La, significance of difference ([5]; 35 μg group): reached significance
La: mean latency time per trial ([5]; 35.0 μg/kg i.p., 2 hours after treatment): 18.8 ± 4.6 s
Av: number of avoidances during 10 trials ([5]; 35.0 μg/kg i.p., * p < 0.05 vs control (0.0)): 5.0 ± 1.4 n°
numbers of complete avoidances during 10 trials (FIG. 15), in words ([5]; 7 and 35 μg treatment groups vs no-treatment group): scored significantly higher
dose of maximum effect on PAB scores ([5]; i.p.): 7 µg/kg

CC(C)NCC(O)COc1cccc2ccccc12 (stereo not shown) [Propranolol]
agitation and aggression (agitation and aggression): reported to help reduce agitation and aggression

O=C1CC2(CCCC2)CC(=O)N1CCCCN1CCN(c2ncccn2)CC1 [buspirone]
agitation and aggression (agitation and aggression): reported to help reduce agitation and aggression

COc1ccc2c(c1)c(CC(=O)O)c(C)n2C(=O)c1ccc(Cl)cc1 [indomethacin]
ADAS [6]: only slight decrements
BNT [6]: slight improvement
MMSE [6]: almost no change
TT [6]: only slight decrements

CC(C)NCC(O)COc1cccc2[nH]ccc12 (stereo not shown) [pindolol]
agitation and aggression (agitation and aggression): reported to help reduce agitation and aggression

C[C@]12C=CC(=O)C=C1CC[C@@H]1[C@@H]2C(=O)C[C@@]2(C)[C@H]1CC[C@]2(O)C(=O)CO [prednisone]
effect in AD patients (AD patients): no effect

Nc1c2c(nc3ccccc13)CCCC2 [tacrine]
cognitive and functional measures (patients with AD): improvement
